Experimental data from patent US11834467B2, “Substituted indazoles as hematopoietic progenitor kinase 1 (HPK1) inhibitors” (1ST Biotherapeutics, Inc., priority 2020, dated 2023).
Where two headings read alike, the source gives them in different places.

Test system: human peripheral blood pan T cells
Assay: IFNγ and IL-2 secretion analysis of human peripheral pan T cells
Assay type: cell-based
Details: CD3/CD28 stimulation, 100 nM Prostaglandin E2, 24 hr
Procedure: Human peripheral blood pan T cells were purchased from STEMCELL™ Technologies Inc. Human peripheral blood pan T cells were thawed and suspended in DMEM media (10% FBS and 100 Penicillin/Streptomycin). 8×10^4 T cells were seeded in 96-well plate and incubated with various concentration of compounds and 100 nM Prostaglandin E2 for 1 hr. T cells were stimulated with Dynabeads Human T-Activator CD3/CD28 (Life Technologies) at a 1:3 cells:beads ratio. […] Data were analyzed with an MESO Quickplex SQ120 (Mesoscale Discovery).

[1] = Homo sapiens, T-cell, 24 h, IFNγ secretion, read-out: IFNγ (EC50)
[2] = Homo sapiens, T-cell, 24 h, IL-2 secretion, read-out: IL-2 (EC50)

EC50 [1] [nM] | EC50 [2] [nM] | EC50 (IFNγ secretion, read-out: IFNγ (EC50)) [nM] | SMILES
< 200 | 200 to 1000 |  | CCc1c(F)cc2[nH]ncc2c1-c1ccc2nc(NC(=O)[C@@H]3C[C@@H]3F)cn2n1 [Example 4]
200 to 1000 | 200 to 1000 |  | CCc1c(F)c(N(C)C)c2[nH]ncc2c1-c1ccc2nc(NC(=O)[C@@H]3C[C@@H]3F)cn2n1 [Example 7]
200 to 1000 | 200 to 1000 |  | CCOc1c(F)c(CC)c(-c2ccc3nc(NC(=O)[C@@H]4C[C@@H]4F)cn3n2)c2cn[nH]c12 [Example 13]
< 200 | 200 to 1000 |  | CCc1c(F)c(N(C)C)c2[nH]ncc2c1-c1cn2cc(NC(=O)[C@@H]3C[C@@H]3F)nc2cn1 [Example 26]
< 200 |  |  | CSc1c(F)c(SC)c2[nH]ncc2c1-c1cn2cc(NC(=O)[C@@H]3C[C@@H]3F)nc2cn1 [Example 27]
< 200 | 200 to 1000 |  | CN(C)c1c(F)c(Cl)c(-c2cn3cc(NC(=O)[C@@H]4C[C@@H]4F)nc3cn2)c2cn[nH]c12 [Example 33]
< 200 | 200 to 1000 |  | CCOc1c(F)c(Cl)c(-c2cn3cc(NC(=O)[C@@H]4C[C@@H]4F)nc3cn2)c2cn[nH]c12 [Example 34]
200 to 1000 | 200 to 1000 | < 200 | CSc1c(F)c(Cl)c(-c2cn3cc(NC(=O)[C@@H]4C[C@@H]4F)nc3cn2)c2cn[nH]c12 [Example 38]
< 200 | 200 to 1000 |  | CN(C)c1c(F)c(C(F)(F)F)c(-c2cn3cc(NC(=O)[C@@H]4C[C@@H]4F)nc3cn2)c2cn[nH]c12 [Example 40]
< 200 | 200 to 1000 |  | CCN(C)c1c(F)c(Cl)c(-c2cn3cc(NC(=O)[C@@H]4C[C@@H]4F)nc3cn2)c2cn[nH]c12 [Example 41]
< 200 | 200 to 1000 |  | CCN(C)c1c(F)c(C(F)(F)F)c(-c2cn3cc(NC(=O)[C@@H]4C[C@@H]4F)nc3cn2)c2cn[nH]c12 [Example 42]
< 200 | 200 to 1000 |  | CCOc1c(F)c(CC)c(-c2cn3cc(NC(=O)[C@@H]4C[C@@H]4F)nc3cn2)c2cn[nH]c12 [Example 44]
< 200 | 200 to 1000 |  | CN(c1c(F)c(Cl)c(-c2cn3cc(NC(=O)[C@@H]4C[C@@H]4F)nc3cn2)c2cn[nH]c12)C1CC1 [Example 58]
< 200 | 200 to 1000 |  | CC(C)Nc1c(F)c(Cl)c(-c2cn3cc(NC(=O)[C@@H]4C[C@@H]4F)nc3cn2)c2cn[nH]c12 [Example 61, (1S,2S)—N-(6-(5-chloro-6-fluoro-7-(isopropylamino)-1H-indazol-4-yl)imidazo[1,2-a]pyrazin-2-yl)-2-fluorocyclopropane-1-carboxamide]
< 200 | 200 to 1000 |  | CC(C)N(C)c1c(F)c(Cl)c(-c2cn3cc(NC(=O)[C@@H]4C[C@@H]4F)nc3cn2)c2cn[nH]c12 [Example 62]
< 200 | < 200 |  | CC(C)c1c(F)c(Cl)c(-c2cn3cc(NC(=O)[C@@H]4C[C@@H]4F)nc3cn2)c2cn[nH]c12 [Example 64, (1S,2S)—N-(6-(5-chloro-6-fluoro-7-isopropyl-1H-indazol-4-yl)imidazo[1,2-a]pyrazin-2-yl)-2-fluorocyclopropane-1-carboxamide]
